According to patent EP2975030B1, “DIHYDROPYRIDAZINE-3,5-DIONE DERIVATIVE” (Chugai Seiyaku Kabushiki Kaisha, priority 2013, dated 2014):

Each molecule was assayed on rat small-intestinal brush border membrane vesicles (assay: Inhibitory effect on 33PO4 uptake into rat small-intestinal brush border membrane vesicles (rapid filtration method)). Conditions: 1 µM test compound; 33PO4 uptake into rat small-intestinal BBMVs, 60 seconds.
Type: biochemical, Wistar female rat
How it was run: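 33PO4 uptake into rat small-intestinal brush border membrane vesicles measured by rapid filtration. Reactions were stopped with ice-cold buffer (110 mM NaCl, 1 mM KH2PO4, 10 mM HEPES pH 7.5), filtered and washed. Vesicle-associated radioactivity was counted by liquid scintillation.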

Going from CN1N(Cc2ccc(OCCN3CCOC(=O)C3)c(F)c2F)C(=O)C(C(=O)Nc2ccc(C(F)(F)F)cc2-c2cc(C(F)(F)F)ncn2)=C(O)C12CCC2 [Example 337, 8-[[2,3-Difluoro-4-[2-(2-oxomorpholin-4-yl)ethoxy]phenyl]methyl]1-5-hydroxy-9-methyl-7-oxo-N-[4-(trifluoromethyl)-2[6-(trifluoromethyl)pyrimidin-4-yl]phenyl]-8,9-diazaspiro[3.5]non-5-ene-6-carboxamide] to CN1CCN(CCOc2ccc(CN3C(=O)C(C(=O)Nc4ccc(C(F)(F)F)cc4-c4cc(C(F)(F)F)ncn4)=C(O)C4(CCC4)N3C)c(F)c2F)CC1=O [Example 359], the “Rate of uptake inhibition (%) (1 µM)” value falls from 47% to 37%.

First: CN(CCOc1ccc(CN2C(=O)C(C(=O)Nc3ccc(C(F)(F)F)cc3-c3cc(C(F)(F)F)ncn3)=C(O)C3(CCC3)N2C)c(F)c1F)C1CCOC1 (stereo not shown) [Example 338, 6-[[2,3-Difluoro-4-[2-[methyl(oxolan-3-yl)amino]ethoxy]phenyl]methyl]-9-hydroxy-5-methyl-7-oxo-N-[4-(trifluoromethyl)-2-[6-(trifluoromethyl)pyrimidin-4-yl]phenyl]-5,6-diazaspiro[3.5]non-8-ene-8-carboxamide]
Second: CN(CCOc1ccc(CN2C(=O)C(C(=O)Nc3ccc(C(F)(F)F)cc3-c3cc(C(F)(F)F)ncn3)=C(O)C3(CCCC3)N2C)c(F)c1F)C1CCOC1 (stereo not shown) [Example 366]
The “Rate of uptake inhibition (%) (1 µM)” value of the first is higher: 66% for the first, 38% for the second.

First: CN1N(Cc2ccc(OCCN3[C@@H]4COC[C@H]3C4)c(F)c2F)C(=O)C(C(=O)Nc2ccc(C(F)(F)F)cc2-c2cc(C(F)(F)F)ncn2)=C(O)C12CCC2 [Example 339]
Second: CN1N(Cc2ccc(OCCN3[C@@H]4COC[C@H]3C4)c(F)c2F)C(=O)C(C(=O)Nc2ccc(C(F)(F)F)cc2-c2cc(C(F)(F)F)ncn2)=C(O)C12CCCC2 [Example 380]
The “Rate of uptake inhibition (%) (1 µM)” value of the first is higher: 66% for the first, 43% for the second.

First: CN1N(Cc2ccc(OCCN3C4CCC3COC4)c(F)c2F)C(=O)C(C(=O)Nc2ccc(C(F)(F)F)cc2-c2cc(C(F)(F)F)ncn2)=C(O)C12CCC2 [Example 340]
Second: CN1N(Cc2ccc(OCCN3C4CCC3COC4)c(F)c2F)C(=O)C(C(=O)Nc2ccc(C(F)(F)F)cc2-c2cc(C(F)(F)F)ncn2)=C(O)C12CCCC2 [Example 367]
The “Rate of uptake inhibition (%) (1 µM)” value of the first is higher: 63% for the first, 43% for the second.

Going from CN1N(Cc2ccc(OCCN3CCOCC3(C)C)c(F)c2F)C(=O)C(C(=O)Nc2ccc(C(F)(F)F)cc2-c2cc(C(F)(F)F)ncn2)=C(O)C12CCC2 [Example 341] to CN1N(Cc2ccc(OCCN3CCOCC3(C)C)c(F)c2F)C(=O)C(C(=O)Nc2ccc(C(F)(F)F)cc2-c2cc(C(F)(F)F)ncn2)=C(O)C12CCCC2 [Example 371], the “Rate of uptake inhibition (%) (1 µM)” value falls from 64% to 38%.

Compared with CN1N(Cc2ccc(OCCN3CCOC(C)(C)C3)c(F)c2F)C(=O)C(C(=O)Nc2ccc(C(F)(F)F)cc2-c2cc(C(F)(F)F)ncn2)=C(O)C12CCC2 [Example 342], COC1(C)CN(CCOc2ccc(CN3C(=O)C(C(=O)Nc4ccc(C(F)(F)F)cc4-c4cc(C(F)(F)F)ncn4)=C(O)C4(CCC4)N3C)c(F)c2F)C1 [Example 356] is higher in “Rate of uptake inhibition (%) (1 µM)” value: 43% for the first, 58% for the second.

Compared with C[C@H]1COC[C@H](C)N1CCOc1ccc(CN2C(=O)C(C(=O)Nc3ccc(C(F)(F)F)cc3-c3cc(C(F)(F)F)ncn3)=C(O)C3(CCC3)N2C)c(F)c1F [Example 343], C[C@@H]1COC[C@H](C)N1CCOc1ccc(CN2C(=O)C(C(=O)Nc3ccc(C(F)(F)F)cc3-c3cc(C(F)(F)F)ncn3)=C(O)C3(CCC3)N2C)c(F)c1F [Example 344] is lower in “Rate of uptake inhibition (%) (1 µM)” value: 68% for the first, 58% for the second.

First: COC(=O)CN(C)CCOc1ccc(CN2C(=O)C(C(=O)Nc3ccc(C(F)(F)F)cc3-c3cc(C(F)(F)F)ncn3)=C(O)C3(CCC3)N2C)c(F)c1F [Example 346]
Second: COC(=O)CN(C)CCOc1ccc(CN2C(=O)C(C(=O)Nc3ccc(C(F)(F)F)cc3-c3cc(C(F)(F)F)ncn3)=C(O)C3(CCCC3)N2C)c(F)c1F [Example 368]
The “Rate of uptake inhibition (%) (1 µM)” value of the first is higher: 42% for the first, 26% for the second.

Compared with CN(CCO)CCOc1ccc(CN2C(=O)C(C(=O)Nc3ccc(C(F)(F)F)cc3-c3cc(C(F)(F)F)ncn3)=C(O)C3(CCC3)N2C)c(F)c1F [Example 347], CN(CCO)CCOc1ccc(CN2C(=O)C(C(=O)Nc3ccc(C(F)(F)F)cc3-c3cc(C(F)(F)F)ncn3)=C(O)C3(CCCC3)N2C)c(F)c1F [Example 373] is lower in “Rate of uptake inhibition (%) (1 µM)” value: 28% for the first, 27% for the second.

First: COCCN(CCOC)CCOc1ccc(CN2C(=O)C(C(=O)Nc3ccc(C(F)(F)F)cc3-c3cc(C(F)(F)F)ncn3)=C(O)C3(CCC3)N2C)c(F)c1F [Example 348]
Second: CN1N(Cc2ccc(OCCN(CCO)CCO)c(F)c2F)C(=O)C(C(=O)Nc2ccc(C(F)(F)F)cc2-c2cc(C(F)(F)F)ncn2)=C(O)C12CCC2 [Example 351]
The “Rate of uptake inhibition (%) (1 µM)” value of the first is higher: 31% for the first, 22% for the second.

First: COCC(C)(C)N(C)CCOc1ccc(CN2C(=O)C(C(=O)Nc3ccc(C(F)(F)F)cc3-c3cc(C(F)(F)F)ncn3)=C(O)C3(CCC3)N2C)c(F)c1F [Example 349]
Second: COCC(C)(C)N(C)CCOc1ccc(CN2C(=O)C(C(=O)Nc3ccc(C(F)(F)F)cc3-c3cc(C(F)(F)F)ncn3)=C(O)C3(CCCC3)N2C)c(F)c1F [Example 372]
The “Rate of uptake inhibition (%) (1 µM)” value of the first is higher: 55% for the first, 38% for the second.

Compared with COC(C)(C)CN(C)CCOc1ccc(CN2C(=O)C(C(=O)Nc3ccc(C(F)(F)F)cc3-c3cc(C(F)(F)F)ncn3)=C(O)C3(CCC3)N2C)c(F)c1F [Example 350], CC(=O)N(C)CCN(C)CCOc1ccc(CN2C(=O)C(C(=O)Nc3ccc(C(F)(F)F)cc3-c3cc(C(F)(F)F)ncn3)=C(O)C3(CCC3)N2C)c(F)c1F [Example 354] is lower in “Rate of uptake inhibition (%) (1 µM)” value: 45% for the first, 31% for the second.

Compared with CN1N(Cc2ccc(OCCn3cncn3)c(F)c2F)C(=O)C(C(=O)Nc2ccc(C(F)(F)F)cc2-c2cc(C(F)(F)F)ncn2)=C(O)C12CCC2 [Example 352], CSC1CN(CCOc2ccc(CN3C(=O)C(C(=O)Nc4ccc(C(F)(F)F)cc4-c4cc(C(F)(F)F)ncn4)=C(O)C4(CCC4)N3C)c(F)c2F)C1 [Example 357] is higher in “Rate of uptake inhibition (%) (1 µM)” value: 27% for the first, 45% for the second.

Going from CC(=O)NCCN(C)CCOc1ccc(CN2C(=O)C(C(=O)Nc3ccc(C(F)(F)F)cc3-c3cc(C(F)(F)F)ncn3)=C(O)C3(CCC3)N2C)c(F)c1F [Example 353] to COC(=O)[C@@H]1CCCN1CCOc1ccc(CN2C(=O)C(C(=O)Nc3ccc(C(F)(F)F)cc3-c3cc(C(F)(F)F)ncn3)=C(O)C3(CCC3)N2C)c(F)c1F [Example 355], the “Rate of uptake inhibition (%) (1 µM)” value rises from 26% to 36%.

Compared with CN1N(Cc2ccc(OCCN3CCC(N4CCOCC4)CC3)c(F)c2F)C(=O)C(C(=O)Nc2ccc(C(F)(F)F)cc2-c2cc(C(F)(F)F)ncn2)=C(O)C12CCC2 [Example 358], CN1N(Cc2ccc(OCCN3CCC(N4CCOCC4)CC3)c(F)c2F)C(=O)C(C(=O)Nc2ccc(C(F)(F)F)cc2-c2cc(C(F)(F)F)ncn2)=C(O)C12CCCC2 [Example 374] is higher in “Rate of uptake inhibition (%) (1 µM)” value: 34% for the first, 42% for the second.

First: CN1N(Cc2ccc(OCCN3CCN(CCO)CC3)c(F)c2F)C(=O)C(C(=O)Nc2ccc(C(F)(F)F)cc2-c2cc(C(F)(F)F)ncn2)=C(O)C12CCC2 [Example 360]
Second: CN1N(Cc2ccc(OCCN3CCN(CCO)CC3)c(F)c2F)C(=O)C(C(=O)Nc2ccc(C(F)(F)F)cc2-c2cc(C(F)(F)F)ncn2)=C(O)C12CCCC2 [Example 376]
The “Rate of uptake inhibition (%) (1 µM)” value of the first is lower: 21% for the first, 33% for the second.

First: CN1N(Cc2ccc(OCCN3CCN(CCOCCO)CC3)c(F)c2F)C(=O)C(C(=O)Nc2ccc(C(F)(F)F)cc2-c2cc(C(F)(F)F)ncn2)=C(O)C12CCC2 [Example 361]
Second: CN1N(Cc2ccc(OCCN3CCN(CCOCCO)CC3)c(F)c2F)C(=O)C(C(=O)Nc2ccc(C(F)(F)F)cc2-c2cc(C(F)(F)F)ncn2)=C(O)C12CCCC2 [Example 378]
The “Rate of uptake inhibition (%) (1 µM)” value of the first is lower: 20% for the first, 35% for the second.

First: CN1N(Cc2ccc(OCCN3CCN(CCCO)CC3)c(F)c2F)C(=O)C(C(=O)Nc2ccc(C(F)(F)F)cc2-c2cc(C(F)(F)F)ncn2)=C(O)C12CCC2 [Example 362]
Second: COCCN1CCN(CCOc2ccc(CN3C(=O)C(C(=O)Nc4ccc(C(F)(F)F)cc4-c4cc(C(F)(F)F)ncn4)=C(O)C4(CCCC4)N3C)c(F)c2F)CC1 [Example 377]
The “Rate of uptake inhibition (%) (1 µM)” value of the first is lower: 17% for the first, 29% for the second.

First: CN1N(Cc2ccc(OCCN3CCN(S(C)(=O)=O)CC3)c(F)c2F)C(=O)C(C(=O)Nc2ccc(C(F)(F)F)cc2-c2cc(C(F)(F)F)ncn2)=C(O)C12CCC2 [Example 363]
Second: CN1N(Cc2ccc(OCCN3CCN(S(C)(=O)=O)CC3)c(F)c2F)C(=O)C(C(=O)Nc2ccc(C(F)(F)F)cc2-c2cc(C(F)(F)F)ncn2)=C(O)C12CCCC2 [Example 379]
The “Rate of uptake inhibition (%) (1 µM)” value of the first is lower: 11% for the first, 137% for the second.

Going from CN(C)C(=O)N1CCN(CCOc2ccc(CN3C(=O)C(C(=O)Nc4ccc(C(F)(F)F)cc4-c4cc(C(F)(F)F)ncn4)=C(O)C4(CCC4)N3C)c(F)c2F)CC1 [Example 364] to CN1N(Cc2ccc(OCCN3CC(F)(F)C3)c(F)c2F)C(=O)C(C(=O)Nc2ccc(C(F)(F)F)cc2-c2cc(C(F)(F)F)ncn2)=C(O)C12CCCC2 [Example 369], the “Rate of uptake inhibition (%) (1 µM)” value rises from 36% to 43%.

Compared with CN(CCOc1ccc(CN2C(=O)C(C(=O)Nc3ccc(C(F)(F)F)cc3-c3cc(C(F)(F)F)ncn3)=C(O)C3(CCCC3)N2C)c(F)c1F)C1CCOCC1 [Example 365], C[C@@H]1COC[C@H](C)N1CCOc1ccc(CN2C(=O)C(C(=O)Nc3ccc(C(F)(F)F)cc3-c3cc(C(F)(F)F)ncn3)=C(O)C3(CCCC3)N2C)c(F)c1F [Example 370] is higher in “Rate of uptake inhibition (%) (1 µM)” value: 34% for the first, 41% for the second.

With COC[C@@H]1CCCN1CCOc1ccc(CN2C(=O)C(C(=O)Nc3ccc(C(F)(F)F)cc3-c3cc(C(F)(F)F)ncn3)=C(O)C3(CCCC3)N2C)c(F)c1F [Example 375] the “Rate of uptake inhibition (%) (1 µM)” value was 31%.
